This passage reports PMN-Elastase inhibitory activity results from patent publication US4746729A, “Cartilage-derived leukocyte elastase-inhibitor” (priority 1986, dated 1988).

In the experiment the test system is PMN-Elastase. The experiment in a line: PMN-Elastase inhibition assay with chromogenic substrate. The experiment is classed as biochemical, human. Particulars: substrate methoxysuccinyl-Ala-Ala-Pro-Val-p-nitroanilide, 405 nm absorption, semiquantitative. On the procedure:
PMN-Elastase was isolated and purified from human neutrophile as depicted in Recent Advances In Connective Tissue Research, 1986, Bukhauser Verlag, Basel, Boston, Stuttgart, C. Arsenis, E. S.-M. A. Thomar, and K. E. Kuettner, pages 63-68, incorporated herein by reference. It has essentially no cathepsin-G activity. The enzyme was tested against its natural substrates, such as type IV collagen, insoluble amorphous elastin, and against the specific synthetic substrate Methoxysuccinyl-L-Alanyl-L-Alanyl-L-Prolyl-L-Valyl-p-nitro-anilide, from which a DMSO stock solution was made. See The Journal of Bioloqical Chemistry, Vol. 254, pp. 4027-4032, 1979, K. Nakajima, J. C. Powers, B. M. Ashe, and M. Zimmerman, incorporated herein by reference. Aliquots were diluted with assay buffer for each measurement.
30 microliters (2.5-15 micrograms protein/ml) of PMN-Elastase was poured into a 96 well-plate, and 70 microliters of sample were added and incubated for 30 minutes at 30° C. After addition of 100 microliters substrate solution (methoxy-succinyl-L-Alanyl-L-Alanyl-L-Prolyl-L-Valyl-p-nitroanilide) in DMSO, dilution to 3 mM was effected with a buffer solution of 20 mM Tris and 500 mM NaCl at pH 7.3 (final DMSO concentration 10%). […] By varying the enzyme quantities, semiquantitative relationships were obtained.

For the substance “serum albumin: 68 KD blood contaminant in the high molecular weight fraction of the cartilage extract”, the PMN-Elastase inhibitory activity entry is “inhibit the PMN-Elastase to a certain extent”.
